The values that follow come from patent publication US20250297233A1, “GENETICALLY ENCODED SYSTEMS FOR GENERATING OXYGEN IN LIVING EUKARYOTIC CELLS” (The General Hospital Corporation, priority 2022, published 2025).

The target in test [1] is sodium iodide symporter (NIS) (Rattus norvegicus, UniProt Q63008). Particulars: read-out: Km of NIS transport; Xenopus oocytes (Eskandari 1997); cited from earlier work.
Test [2] relates to HeLa cells. Description: Seahorse oxygen and oxygen consumption rate measurement in intact cells. The test is classed as cell-based, human. Particulars: 1% ambient oxygen.
Test [3] concerns NdCld. Particulars: NdCld in E. coli extracts (Maixner 2008); cited from earlier work.
Chain of NdCld (as listed by the source): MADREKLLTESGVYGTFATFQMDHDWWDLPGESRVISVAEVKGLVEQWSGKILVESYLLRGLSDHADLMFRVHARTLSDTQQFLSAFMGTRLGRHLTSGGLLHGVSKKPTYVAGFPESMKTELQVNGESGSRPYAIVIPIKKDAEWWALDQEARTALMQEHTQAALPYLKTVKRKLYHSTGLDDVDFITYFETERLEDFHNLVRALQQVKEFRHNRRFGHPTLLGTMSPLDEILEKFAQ
Test [4] relates to HeLa cells. Particulars: read-out: concentration giving 50% decrease in viability; HeLa cells (GFP), treated for 3 days, FIG. 3A.
Description: Cell counts and viability were assessed after 3 days of growth using a Vi-Cell BLU Cell Viability Analyzer. Shown is the mean+/−s.d. of triplicate measurements.
HeLa cells were trypsinized, counted, and prepared at 10^5 cells/ml in normal growth media. […] Cells were seeded in 24-well plates, with triplicate wells for each condition. 500 ul of each 2× chlorite/media preparation was first added to the plate. 500 ul of cell suspension (5×10^4 cells) was then added to each well. The plate was gently mixed, and cells were grown for 3 days in a 37° C./5% CO2 incubator. After 3 days, cells were washed briefly with 500 ul of PBS, trypsinized with 250 ul TrypLE Express, and resuspended with 750 ul of normal growth media to 1 ml total volume. In wells containing a majority of visibly dead, floating cells, cells were resuspended by vigorously pipetting up and down rather than by trypsinization. 200 ul of each cell suspension was then quantified using a Vi-Cell BLU Cell Viability Analyzer (Beckman Coulter).
For test [5], the system named is NdCld. Particulars: purified bacterial expressed NdCld (Kostan 2010; Hofbauer 2014); cited from earlier work.
Test [6] relates to yeast. Particulars: read-out: dose required to achieve 50% growth inhibition; yeast (Kwolek-Mirek 2011); cited from earlier work.
Test [7] concerns NdCld. Particulars: human digitonin-permeabilized HeLa cell extract expressing NdCld, initial rates of oxygen evolution. As for the experimental part:
HeLa cells were pelleted at 800×g for 3 min, washed with PBS, pelleted again, and then resuspended in assay buffer (125 mM KCl, 2 mM K2HPO4, 1 mM MgCl2, 2 0 mM HEPES pH 7.2, 5 mM glutamate, 5 mM malate, and 0.01% digitonin) at a concentration of 5×10^6 cells/ml. Oxygen production was measured using a FireSting optical oxygen meter connected to a sensor vial. One ml of cell solution (5×10^6 cells) was used for each measurement. Measurements were performed under ambient air conditions with stirring of the cell solution. […] The initial rates were determined from the resulting oxygen traces using up to 20 seconds of the linear portion of the trace via the ICEKAT web server (Olp, 2020). The means of 3 replicate rates were plotted against the chlorite concentrations to estimate the KM.
We next characterized the activity of this protein in human cell extracts. […] Doses spanning 10 uM to 1 mM were used, as previous studies have shown that higher chlorite concentrations lead to inactivation of the enzyme (Hofbauer 2014). We monitored oxygen evolution using an optical probe in a well-stirred, air saturated cuvette.

Where two headings read alike, the source gives them in different places.

Chain of sodium iodide symporter (NIS) (Q63008 whole entry): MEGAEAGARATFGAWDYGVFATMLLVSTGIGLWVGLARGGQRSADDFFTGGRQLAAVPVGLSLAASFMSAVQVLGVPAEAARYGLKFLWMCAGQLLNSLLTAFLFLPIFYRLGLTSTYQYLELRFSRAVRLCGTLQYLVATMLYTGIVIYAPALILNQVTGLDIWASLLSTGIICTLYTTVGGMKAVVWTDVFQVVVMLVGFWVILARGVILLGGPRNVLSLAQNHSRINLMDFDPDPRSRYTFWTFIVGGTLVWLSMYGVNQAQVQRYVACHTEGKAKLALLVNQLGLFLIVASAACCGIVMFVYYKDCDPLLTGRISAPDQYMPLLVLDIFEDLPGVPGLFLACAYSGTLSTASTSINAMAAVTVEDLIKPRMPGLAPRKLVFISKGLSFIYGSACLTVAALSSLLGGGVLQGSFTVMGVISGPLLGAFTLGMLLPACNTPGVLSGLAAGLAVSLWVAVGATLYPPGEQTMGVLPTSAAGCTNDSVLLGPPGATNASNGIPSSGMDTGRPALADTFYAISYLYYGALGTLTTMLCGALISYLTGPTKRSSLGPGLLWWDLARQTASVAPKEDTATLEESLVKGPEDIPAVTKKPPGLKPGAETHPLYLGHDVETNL

As usually defined, the Km is the substrate concentration at which the rate is half of its maximum. For the molecule `[O-][Cl+2]([O-])O` [chlorate], the Km in test [1] was 277 µM.

For sodium chlorite, the “oxygen generation (decline in apparent OCR)” value in test [2] (HeLa cells co-expressing NdCld and NIS, piericidin+antimycin, dose response beginning with 1 mM chlorite) is listed as “robust oxygen production”. In test [2] (HeLa cells expressing FLAG-NdCld+NIS (not mCherry), 500 uM or 1 mM chlorite), the “oxygen evolution in intact cells” value is on record as “observed oxygen evolution”. The figures for the Michaelis constant (Km) in test [3], in test [5] and in test [7] (read-out: Km for chlorite) were 15800 µM, 58 to 69 µM and 560 µM, respectively. Besides, the IC50 was around 2000 µM in test [4] and 4000 µM in test [6]. The Vmax in test [7] was 0.37 umoles/second/100,000 cells.
